Numbered stars: 1 amine (or outer) side, 2 acyl side, 3 side chain; on linkers, the order of the positions; unused ones are H or OH. Bridge positions count the residues as written; N and C are the ends. Square brackets hold non-standard residues; d marks the D form. Peptide text beside a SMILES is read from it. X2 = O=C(CC1(S[*:2])CCCCC1)[*:1]; X1 = CC(C)(CC(=O)[*:1])S[*:2]; Mpa = O=C(O)CCS
Experiments:
oxytocin receptors = target: T1, oxytocin receptors (Rattus norvegicus, UniProt P70536); experiment: isolated rat uterus protocol; type: cell-based; settings: read-out: Rat OXT KB
T1 construct: Rat uterus; from tissue; host or cells: isolated rat uterus
T1 sequence (P70536 1-388): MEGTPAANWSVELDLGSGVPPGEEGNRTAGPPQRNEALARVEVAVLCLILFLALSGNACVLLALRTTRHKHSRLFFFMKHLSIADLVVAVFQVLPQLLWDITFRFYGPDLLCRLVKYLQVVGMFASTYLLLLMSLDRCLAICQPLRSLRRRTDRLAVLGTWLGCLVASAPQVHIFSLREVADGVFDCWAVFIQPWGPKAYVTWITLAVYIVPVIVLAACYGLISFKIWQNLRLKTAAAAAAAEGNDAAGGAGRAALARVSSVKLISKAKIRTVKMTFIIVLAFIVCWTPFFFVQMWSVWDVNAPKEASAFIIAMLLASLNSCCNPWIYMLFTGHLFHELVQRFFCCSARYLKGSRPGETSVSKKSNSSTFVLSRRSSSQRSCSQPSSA
Description: (§1) Antagonistic activity of the V1 -vasopressin receptors is determined in a protocol which measures the reversal of the vasopressin-induced contraction of rat thoracic aorta tissue. This is expressed as KB (nM) in the table below. Such anti-pressor activity is confirmed in a similar in vitro protocol using the plasma membranes of rat liver. V2 -vasopressin antagonism is determined as receptor binding ability measured by inhibition of 3H-LVP binding (KB as nM), by inhibition of adenylate cyclase activation by vasopressin in the medullary tissue of hog kidneys (Ki as nM) or in vivo in the hydropenic rat protocol (ED300 μg/kg). These procedures are described in the literature: F. Stassen et al., J. Pharmacology and Experimental Therapeutics, 223 50 (1982); F. Stassen et al., 1st International Conference on Diuretics, Miami, Fla., March (1984). Antagonistic activity at oxytocin receptors is determined in the isolated rat uterus protocol: W. Sawyer, et al., Endocrinology 106 81 (1979); P. Melin, et al., J. of Endocrinology 88 173 (1981).

V2-vasopressin receptors [1] = target: T2, V2-vasopressin receptors (Rattus norvegicus, UniProt Q00788); experiment: hydropenic rat protocol in vivo
T2 construct: Hydropenic rat; from tissue; host or cells: whole animal (hydropenic rat)
T2 sequence (Q00788 whole entry): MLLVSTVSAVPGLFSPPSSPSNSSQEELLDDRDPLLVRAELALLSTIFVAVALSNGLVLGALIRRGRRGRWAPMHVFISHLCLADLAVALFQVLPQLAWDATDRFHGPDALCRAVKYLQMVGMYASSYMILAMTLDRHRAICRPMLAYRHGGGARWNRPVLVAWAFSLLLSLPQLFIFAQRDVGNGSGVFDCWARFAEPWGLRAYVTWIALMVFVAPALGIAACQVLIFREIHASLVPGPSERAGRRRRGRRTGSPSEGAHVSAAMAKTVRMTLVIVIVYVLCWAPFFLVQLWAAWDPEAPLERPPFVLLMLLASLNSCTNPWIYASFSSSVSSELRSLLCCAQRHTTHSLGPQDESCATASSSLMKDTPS
Description: as §1

V2-vasopressin receptors [2] = target: T3, V2-vasopressin receptors (Sus scrofa, UniProt P32307); experiment: inhibition of 3H-LVP binding, medullary pig kidney tissue
T3 construct: Medullary pig kidney tissue; from tissue; host or cells: pig (hog) kidney medulla
T3 sequence (P32307 whole entry): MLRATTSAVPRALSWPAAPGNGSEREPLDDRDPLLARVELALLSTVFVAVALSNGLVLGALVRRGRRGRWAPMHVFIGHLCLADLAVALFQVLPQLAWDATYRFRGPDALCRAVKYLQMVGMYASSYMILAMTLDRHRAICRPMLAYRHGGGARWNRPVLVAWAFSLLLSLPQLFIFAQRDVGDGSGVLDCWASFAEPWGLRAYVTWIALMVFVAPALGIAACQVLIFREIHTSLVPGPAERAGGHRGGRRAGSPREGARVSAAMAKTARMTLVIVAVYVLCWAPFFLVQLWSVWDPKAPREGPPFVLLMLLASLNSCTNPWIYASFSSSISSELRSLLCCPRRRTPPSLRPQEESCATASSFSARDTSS
Description: as §1
(§2) ^a Medullary pig kidney tissue, […]

V1-vasopressin receptors [3] = target: T4, V1-vasopressin receptors (Rattus norvegicus, UniProt P30560); experiment: reversal of vasopressin-induced contraction of rat thoracic aorta tissue; type: cell-based; settings: rat aortic ring tissue
T4 construct: Rat aortic ring tissue; from tissue; host or cells: rat thoracic aorta rings
T4 sequence (P30560 whole entry): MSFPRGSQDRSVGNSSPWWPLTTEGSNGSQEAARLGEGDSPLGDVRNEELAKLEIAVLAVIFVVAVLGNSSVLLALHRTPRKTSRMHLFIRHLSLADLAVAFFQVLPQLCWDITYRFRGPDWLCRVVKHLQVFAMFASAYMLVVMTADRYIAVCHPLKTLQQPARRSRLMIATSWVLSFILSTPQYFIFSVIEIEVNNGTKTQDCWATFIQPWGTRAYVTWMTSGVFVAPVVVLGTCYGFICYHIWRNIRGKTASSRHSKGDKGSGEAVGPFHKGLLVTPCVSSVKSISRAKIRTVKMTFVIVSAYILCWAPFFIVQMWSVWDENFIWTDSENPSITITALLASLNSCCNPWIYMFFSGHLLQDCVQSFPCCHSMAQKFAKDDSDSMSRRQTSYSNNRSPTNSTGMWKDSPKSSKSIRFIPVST
Description: as §1
^c Rat aortic ring tissue, […]

V1-vasopressin receptors [4] = target: T4, V1-vasopressin receptors; experiment: in vitro protocol using plasma membranes of rat liver; type: binding; settings: rat liver membrane
Description: as §1

V2-vasopressin receptors [5] = target: T3, V2-vasopressin receptors; experiment: inhibition of adenylate cyclase activation by vasopressin, medullary pig kidney tissue; type: biochemical
Description: as §1, §2

Row | Structure (SMILES) | Kb (oxytocin receptors) | Rat V2 ED300 (V2-vasopressin receptors [1]) | Kb (V2-vasopressin receptors [2]) | Kb (V1-vasopressin receptors [3]) | Kb (V1-vasopressin receptors [3]; estimated, compound noncompetitive) | Kb (V1-vasopressin receptors [4]) | Pig V2 Ki (V2-vasopressin receptors [5]) | Ki (V2-vasopressin receptors [5])
1 | COc1ccc(C[C@@H]2NC(=O)CC(C)(C)SSC[C@@H](C(=O)N[C@@H](CCCNC(=N)N)C(N)=O)NC(=O)[C@H](CC(N)=O)NC(=O)[C@H](CCC(N)=O)NC(=O)[C@H](Cc3ccccc3)NC2=O)cc1 [A] (Y(Me)FQNCR-NH2; linker N-5 via X1) | 32.6 nM | > 5.959 mg/kg | 3000 nM | 5.69 nM | – | 38 nM | – | –
2 | COc1ccc(C[C@@H]2NC(=O)CC(C)(C)SSC[C@@H](C(=O)N3CCC[C@H]3C(=O)N[C@@H](CCCNC(=N)N)C(=O)NCC(N)=O)NC(=O)[C@H](CC(N)=O)NC(=O)[C@H](CCC(N)=O)NC(=O)[C@H](Cc3ccccc3)NC2=O)cc1 [F] (Y(Me)FQNCPRG-NH2; linker N-5 via X1) | – | – | 70 nM | – | – | 2.9 nM | agonist | –
3 | COc1ccc(C[C@@H]2NC(=O)CC3(CCCCC3)SSC[C@@H](C(=O)N3CCC[C@H]3C(=O)N[C@@H](CCCN=C(N)N)C(=O)NCC(N)=O)NC(=O)[C@H](CC(N)=O)NC(=O)[C@H](CCC(N)=O)NC(=O)[C@H](Cc3ccccc3)NC2=O)cc1 [G] (Y(Me)FQNCPRG-NH2; linker N-5 via X2) | – | – | 369 nM | 0.026 nM | – | 0.48 nM | – | 210 nM

More lines, main results first:

Row | Kb (oxytocin receptors) | Rat V2 ED300 (V2-vasopressin receptors [1]) | Kb (V2-vasopressin receptors [2]) | Kb (V1-vasopressin receptors [3]) | Kb (V1-vasopressin receptors [3]; estimated, compound noncompetitive) | Structure (SMILES) | Kb (V1-vasopressin receptors [4]) | Pig V2 Ki (V2-vasopressin receptors [5]) | Ki (V2-vasopressin receptors [5])
4 | 18.9 nM | > 5.977 mg/kg | 3300 nM | 1.48 nM | – | COc1ccc(C[C@@H]2NC(=O)CC(C)(C)SSC[C@@H](C(=O)N[C@@H](CCCNC(=N)N)C(=O)NCC(N)=O)NC(=O)[C@H](CC(N)=O)NC(=O)[C@H](CCC(N)=O)NC(=O)[C@H](Cc3ccccc3)NC2=O)cc1 [B] (Y(Me)FQNCRG-NH2; linker N-5 via X1) | 37 nM | – | –
5 | 1.88 nM | – | 350 nM | – | 0.0072 nM | CCOc1ccc(C[C@H]2NC(=O)CC(C)(C)SSC[C@@H](C(=O)N[C@@H](CCCNC(=N)N)C(N)=O)NC(=O)[C@H](CC(N)=O)NC(=O)[C@H](CCC(N)=O)NC(=O)[C@H](Cc3ccccc3)NC2=O)cc1 [C] ([dY](Et)FQNCR-NH2; linker N-5 via X1) | – | – | –
6 | 11.4 nM | – | 1600 nM | – | – | CCOc1ccc(C[C@H]2NC(=O)CCSSC[C@@H](C(=O)N[C@@H](CCCNC(=N)N)C(N)=O)NC(=O)[C@H](CC(N)=O)NC(=O)[C@H]([C@@H](C)O)NC(=O)[C@H]([C@@H](C)CC)NC2=O)cc1 [D] ([Mpa][dY](Et)ITNCR-NH2; disulfide 1-6) | – | – | –
7 | 17.7 nM | – | 4100 nM | – | – | CCOc1ccc(C[C@H]2NC(=O)CCSSC[C@@H](C(=O)N[C@@H](CCCNC(=N)N)C(=O)NCC(N)=O)NC(=O)[C@H](CC(N)=O)NC(=O)[C@H]([C@@H](C)O)NC(=O)[C@H]([C@@H](C)CC)NC2=O)cc1 [E] ([Mpa][dY](Et)ITNCRG-NH2; disulfide 1-6) | – | – | –
